The text below walks through data of patent US4489052A, “Quantitative autoradiographic mapping of focal herpes simplex virus encephalitis using a radiolabeled antiviral drug” (priority 1982, dated 1984).

The conditions of data set [1]: rat, in vivo. From the text: (§1) These initial studies reflect observations on ten rats receiving ^14 C-FMAU. Seven of these were infected, and three uninfected control rats were subjected to a cortical freeze lesion (13) to test the effects of necrosis and breakdown of the blood-brain barrier on drug distribution.
In the next data set the test system is HSV-1. Description: Quantitative autoradiography of ^14 C-FMAU uptake in HSV-1-infected rats (focal encephalitis). The settings on record: for ^14 C Radioactivity Concentration: ± SD.
From the text: as §1

Data set [2] is described as follows: Arterial plasma ^14 C activity by liquid scintillation counting. As to conditions: representative infected rat.
For data set [3] the following is noted: rat; cited from earlier work.
In the next data set the test system is HSV. As to conditions: NIAID Collaborative Study; cited from earlier work.

In the case of `Cc1cn([C@@H]2O[C@H](CO)[C@@H](O)[C@@H]2F)[14c](=O)[nH]c1=O` [^14 C-FMAU], the “isotope uptake in or surrounding the area of necrosis” value in data set [1] is “no increase in isotope uptake was detected”. Further, the “isotope uptake within infected brain regions” value in the data set with HSV-1 (24 hours after isotope injection) is listed as “similarly enhanced within infected brain regions”. For the same molecule, the “activity in lateral walls of the lateral ventricles” value in the data set on HSV-1 (24 hours, apparently uninfected ependymal lining) is on record as “higher activity was noted”. The “^14 C Radioactivity Concentration” value in the data set on HSV-1 (Brain (C): Background, left cortex, viral antigen -, 6 hours) was found to be 104.35 ± 4.88 nCi/gm; in the data set with HSV-1 (Brain (C): Left ventricular choroid plexus, viral antigen -, 6 hours) it was 188.59 ± 9.18 nCi/gm; in the data set on HSV-1 (Brain (C): Optic chiasm, right, viral antigen +, 6 hours), 325.12 ± 16.46 nCi/gm; with HSV-1 (Brain (D): Background, left cortex, viral antigen -, 6 hours) it was 95.29 ± 4.32 nCi/gm; in the data set with HSV-1 (Brain (D): Left hypothalamus, viral antigen +, 6 hours), 1170.91 ± 66.90 nCi/gm; in the data set on HSV-1 (Brain (D): Left optic tract, viral antigen +, 6 hours) it was 1105.89 ± 77.34 nCi/gm. The “^14 C Radioactivity Concentration” value in the data set with HSV-1 (Brain (D): Right hypothalamus, viral antigen +, 6 hours) came to 1138.10 ± 99.57 nCi/gm; in the data set on HSV-1 (Brain (E): Background, left cortex, viral antigen -, 6 hours) it was 96.78 ± 4.66 nCi/gm; in the data set with HSV-1 (Brain (E): Background, right central thalamus, viral antigen -, 6 hours), 67.47 ± 3.90 nCi/gm; with HSV-1 (Brain (E): Left dorsomedial thalamus, viral antigen +, 6 hours) it was 1183.53 ± 163.31 nCi/gm; with HSV-1 (Brain (E): Left lateral thalamus, viral antigen +, 6 hours), 198.21 ± 21.00 nCi/gm; in the data set on HSV-1 (Brain (F): Background, left cortex, viral antigen -, 6 hours), 106.57 ± 5.53 nCi/gm. Further, the “^14 C Radioactivity Concentration” value is given as 468.81 ± 23.96 nCi/gm in the data set on HSV-1 (Brain (F): Central midbrain, viral antigen +, 6 hours); 110.97 ± 9.98 nCi/gm in the data set with HSV-1 (Brain (G): Background, central brainstem, viral antigen -, 6 hours); 83.08 ± 7.70 nCi/gm with HSV-1 (Brain (G): Background, left cortex, viral antigen -, 6 hours); 1509.18 ± 97.65 nCi/gm in the data set on HSV-1 (Brain (G): Pineal gland, viral antigen +, 6 hours); 1528.07 ± 140.36 nCi/gm with HSV-1 (Eye (B): Retina, inferior, viral antigen +, 6 hours); 2447.81 ± 172.66 nCi/gm in the data set with HSV-1 (Eye (B): Retina, posterior, viral antigen +, 6 hours). The “^14 C Radioactivity Concentration” value with HSV-1 (Liver, viral antigen staining -, 6 hours after ^14 C-FMAU (5 mg/kg i.v.)) was 188.25 ± 13.19 nCi/gm. For the same molecule, the “^14 C activity within infected regions vs background” value with HSV-1 (each HSV-1-infected rat) was “exceeded background within infected regions and correlating closely with viral antigen staining in each case”. Besides, the “selectivity of uptake by infected brain cells” value in the data set with HSV-1 (radiolabeled FMAU, HSV-1 infection) is listed as “selectively taken up by infected brain cells”. The “background distribution of ^14 C activity” value in the data set on HSV-1 (uninfected brain regions, 6 hours) is recorded as “quite uniform, with only minor variations among uninfected brain regions”. The “plasma ^14 C-FMAU concentration time course” value in data set [2] (5 mg/kg i.v., to 6 hours) was “fell rapidly over the first 30 mins and more slowly thereafter”. In addition, the “plasma ^14 C-FMAU concentration at the time of sacrifice” value in data set [2] (6 hours after 5 mg/kg i.v.) is “approximately 185 nCi/gm”.
Regarding `Cc1cn([C@@H]2O[C@H](CO)[C@@H](O)[C@@H]2F)c(=O)[nH]c1=O` [FMAU], the metabolic alteration entry in data set [3] is “only a minor fraction undergoes metabolic alteration”.
In the case of `Nc1ncnc2c1ncn2[C@@H]1O[C@H](CO)[C@@H](O)[C@@H]1O` [ara-A], the “therapeutic effect in HSV encephalitis” value in the data set with HSV was “less than optimal”.
